Reference: patent US5182265A, “Pharmacologically active peptide derivatives and pharmaceutical preparations containing them” (SPA Societa' Prodotti Antibiotici S.p.A., priority 1989, dated 1993)
Counter-ions that a name gives are not always drawn. Where a SMILES comes first, the peptide text is derived from it.

Test: Water solubility of the salts (qualitative remark in the preparation)
Format: physicochemical
Conditions: qualitative description of the isolated salt
Protocol: H-Thr-Asp-D-Tyr-OH is dissolved in 5 volumes of water, and the solution is added with an equivalent amount of 1N HCl.
The solution is concentrated to small volume under vacuum and added with acetone.

Row | Structure (SMILES) | water solubility of the isolated powder
1 | C[C@@H](O)[C@H](N)C(=O)N[C@@H](CC(=O)O)C(=O)N[C@@H](Cc1ccc(O)cc1)C(=O)O [H-Thr-Asp-Tyr-OH lysine salt] (H-Thr-Asp-Tyr-OH) | freely water soluble
2 | C[C@@H](O)[C@H](N)C(=O)N[C@@H](CC(=O)O)C(=O)N[C@H](Cc1ccc(O)cc1)C(=O)O [H-Thr-Asp-D-Tyr-OH hydrochloride] (HELM PEPTIDE1{T.D.[dY]}$$$$V2.0) | very water soluble
